Experimental data taken from patent US8815862B2, “Co-crystal intermediates of rosuvastatin and methods of using same” (F.I.S. Fabbrica Italiana Sintetici S.p.A., priority 2011, dated 2014).

What was measured:
[1] = Stability study at 40° C. under vacuum (impurity/lactone content); assay type: physicochemical; conditions: for lactone content after storage: 20 and 40 hours (final value); for lactone impurity content of starting product: before storage; for chemical stability compared to Rosuvastatin acid: 40 h, hemihydrate
Description: Stability Studies at 40° C. Under Vacuum of Co-crystal Rosuvastatin 2-Aminopyrimidine Hemihydrates Compared to Rosuvastatin
The co-crystal has only 3 impurities at 5.651, 5.948 and 6.674 (lactone) min.
For RSV, only some impurities (impurities in common with the co-crystal or impurities with a significant variation) were studied.
Storage conditions: 40° C. under vacuum for 20 and 40 hours.

[2] = cited from earlier work
[3] = Solubility in a series of solvents at room temperature; assay type: physicochemical
Excerpt: The solubility of co-crystal Rosuvastatin 2-aminopyrimidine hemihydrate in a series of solvents at room temperature is provided in Table 2 given below: […]

[4] = Polymorphism observed during screening and purification studies; assay type: physicochemical; conditions: during screening and studies of the purification of Rosuvastatin
Excerpt: Co-crystals of the present invention have a relative lack of polymorphism due to the higher complexity of the crystal structure: polymorphs of co-crystal Rosuvastatin 2-aminopyrimidine hemihydrate were not observed during screening and studies of the purification of Rosuvastatin. In contrast, form salts of Rosuvastatin amines having different polymorphs.

[5] = Humidity stability, stored at room temperature at RH 100% (XRPD); assay type: physicochemical; conditions: RH of 100%, 24 h
Excerpt: Moreover, the solid maintains its good handling properties.

[6] = Solid-state stability, stored at room temperature in a sealed vial (XRPD); assay type: physicochemical; conditions: 3 weeks
[7] = 40° C. under vacuum, 20 and 40 hours

Molecule	change of other impurities on storage [1, 7]	lactone content after storage ([1]; 40° C. under vacuum)	lactone impurity content of starting product [1]	pKa [2]	solubility in ACN ([3]; ACN)	solubility in AcOEt ([3]; AcOEt)	solubility in Acetone ([3]; Acetone)	solubility in EtOH ([3]; EtOH)	solubility in MIK ([3]; MIK)	solubility in MeOH ([3]; MeOH)	solubility in THF ([3]; THF)	polymorphs observed [4]	XRPD / crystallinity after humidity exposure [5]	crystalline transformation or loss of crystallinity (XRPD) [6]	new impurities on storage [1, 7]	chemical stability compared to Rosuvastatin acid ([1]; 40° C. under vacuum, listed as Co-crystal Rosuvastatin 2-aminopyrimidine hemihydrate)	chemical stability compared to Rosuvastatin acid ([1]; 40° C. under vacuum, listed as co-crystal)
CC(C)c1nc(N(C)S(C)(=O)=O)nc(-c2ccc(F)cc2)c1/C=C/[C@@H](O)C[C@@H](O)CC(=O)O [RSV, (E)-(3R,5S)-7-[4-(4-Fluorophenyl)-6-isopropyl-2-[(methylsulfonyl)(methyl)amino]pyrimidin-5-yl]-3,5-dihydroxyhept-6-enoic acid, reference compound]	increased with time	39.84%	17.267%	4.6													
c1ccc2nccnc2c1 [quinoxaline]				0.56													
Rosuvastatin 2-aminopyrimidine hemihydrate	negligible	0.091%	0.036%		14 vol.	20 vol.	4 vol.	10 vol.	45 vol.	3 vol.	2 vol.	not observed	same XRPD without loss of crystallinity	does not show crystalline transformation (same XRPD) or loss of crystallinity	No new impurities were observed	higher than the Rosuvastatin acid	higher than the stability of the Rosuvastatin acid
